Where two headings read alike, the source gives them in different places.
Legend:
[1] = male, Sprague-Dawley, rat, in vivo
[2] = cynomolgus monkey, in vivo; for Prodrug detectability in plasma after dose administration / Tmax: po; for Tmax: male, 8.8 umol/kg
[3] = In vitro release of therapeutic agent from prodrugs in plasma supplemented with lipoprotein lipase; assay type: in vitro ADME; conditions: free allopregnanolone (parent API) in dog plasma supplemented with LPL, 37° C.
Protocol: In order to probe the release of free drug from TG prodrugs in the systemic circulation, prodrugs are incubated with plasma (rat, dog, monkey, or human) supplemented with lipoprotein lipase (LPL, 200 IU/ml). LPL is a key enzyme required for the hydrolysis of lipoprotein associated TG in the systemic circulation and is therefore expected to be a key contributor to lipolysis of the re-esterified drug-TG construct in plasma, largely via liberation of fatty acids in the sn-1 and the sn-3 position of the TG-mimetic, prior to drug release from the 2′ position via esterase hydrolysis. LPL is active in plasma but is tethered to the luminal surface of vascular endothelial cells under physiological conditions. In the current in vitro studies, plasma is therefore supplemented with LPL to better reflect the in vivo situation.
To start hydrolysis, 10 μl of LPL solution (10,000 IU/ml) will be added to a mixture of 10 μl of prodrug solution (1 mg/ml dissolved in organic solvent, e.g., THF, DMSO, or acetonitrile) and 500 μl of blank plasma. The mixture will be incubated at 37° C. […] The supernatant will be analyzed by HPLC-MS/MS for the potential products (MG form, acid form, and free drug) of prodrug hydrolysis.
The in vitro hydrolysis profile of selected prodrug compounds will be determined in rat, dog, monkey and/or human plasma supplemented with LPL.

[4] = male, Sprague-Dawley, in vivo

| SMILES | Cmax ([1]; 2 mg/kg) [nM] | Mean Plasma AUC, 0-24 h ([1]; 2 mg/kg) [µM·h] | Tmax ([1]; 2 mg/kg) [h] | also measured |
| --- | --- | --- | --- | --- |
| CCCCCCCC/C=C\CCCCCCCC(=O)OCC(COC(=O)CCCCCCC/C=C\CCCCCCCC)OC(=O)CCCCC(C)CC(=O)OCOC(=O)O[C@@H]1CC[C@@]2(C)[C@@H](CC[C@@H]3[C@@H]2CC[C@]2(C)[C@@H](C(C)=O)CC[C@@H]32)C1 (stereo partly shown) [Compound I-49, ALL-CASI-C8b′Me-2-TG-oleate] | 370 | 0.513 | 1.7 |  |
| CCCCCCCC(=O)OCC(COC(=O)CCCCCCC)OC(=O)CC(C)CC(=O)OC(C)OC(=O)O[C@@H]1CC[C@@]2(C)[C@@H](CC[C@@H]3[C@@H]2CC[C@]2(C)[C@@H](C(C)=O)CC[C@@H]32)C1 (stereo partly shown) [Compound I-36, ALL-CMSI-C5bMe-2-TG-octanoate] |  |  |  | Tolerability of oral administration [2]: well-tolerated; Prodrug detectability in plasma after dose administration [2]: detectable in plasma samples after dose administration at all time-points; Tmax [2]: 4.0 h; Mean Plasma AUC, 0-24 h ([1]; po): 0.312 µM·h; Tmax ([1]; po): 1.2 h |
| CCCCCCCC/C=C\CCCCCCCC(=O)OCC(COC(=O)CCCCCCC/C=C\CCCCCCCC)OC(=O)CCCCCCC(=O)OCO[C@@H]1CC[C@@]2(C)[C@@H](CC[C@@H]3[C@@H]2CC[C@]2(C)[C@@H](C(C)=O)CC[C@@H]32)C1 [Compound I-41, ALL-ASI-C8-2-TG-oleate] | 129 | 0.211 | 1.7 |  |
| CCCCCCCC/C=C\CCCCCCCC(=O)OCC(COC(=O)CCCCCCC/C=C\CCCCCCCC)OC(=O)CCCCC(=O)OCO[C@@H]1CC[C@@]2(C)[C@@H](CC[C@@H]3[C@@H]2CC[C@]2(C)[C@@H](C(C)=O)CC[C@@H]32)C1 [Compound I-40, ALL-ASI-C6-2-TG-oleate] | 165 | 0.265 | 1.7 |  |
| CCC(=O)OCC(COC(=O)CC)OC(=O)C(C)CCCCCCCCC(C)C(=O)OC(C)OC(=O)O[C@@H]1CC[C@@]2(C)[C@@H](CC[C@@H]3[C@@H]2CC[C@]2(C)[C@@H](C(C)=O)CC[C@@H]32)C1 (stereo partly shown) [Compound I-6, ALL-CMSI-C12a′aMe-2-TG] | 239 | 0.3209 | 1 |  |
| CCCCCCCC(=O)OCC(COC(=O)CCCCCCC)OC(=O)CC(C)CC(=O)OCOC(=O)O[C@@H]1CC[C@@]2(C)[C@@H](CC[C@@H]3[C@@H]2CC[C@]2(C)[C@@H](C(C)=O)CC[C@@H]32)C1 (stereo partly shown) [Compound I-47, ALL-CASI-C5bMe-2-TG-octanoate] |  |  |  | Tolerability of oral administration [2]: well-tolerated; Prodrug detectability in plasma after dose administration [2]: detectable in plasma samples after dose administration at all time-points; Tmax [2]: 4.0 h |
| CCCCCCCCCCCCCCCC(=O)OCC(COC(=O)CCCCCCCCCCCCCCC)OC(=O)CC(C)CC(=O)OC(C)OC(=O)O[C@@H]1CC[C@@]2(C)[C@@H](CC[C@@H]3[C@@H]2CC[C@]2(C)[C@@H](C(C)=O)CC[C@@H]32)C1 (stereo partly shown) [Compound I-8, ALL-CMSI-C5bMe-2-TG] | 241 | 0.3681 | 2.3 | Parent API present at end of experiment (%) [3]: B (≥20% and <60% release into plasma) |
| CC(=O)[C@H]1CC[C@H]2[C@@H]3CC[C@H]4C[C@H](O)CC[C@]4(C)[C@H]3CC[C@]12C [Allopregnanalone, 5α-pregnan-3α-ol-20-one] |  |  |  | Rat - cumulative lymphatic transport: Mean, total lymphatic transport over 6 or 8 hours (%) [4]: 0.1% |
| CCCCCCCC/C=C\CCCCCCCC(=O)OCC(COC(=O)CCCCCCC/C=C\CCCCCCCC)OC(=O)CC(C)CCCCC(=O)OCO[C@@H]1CC[C@@]2(C)[C@@H](CC[C@@H]3[C@@H]2CC[C@]2(C)[C@@H](C(C)=O)CC[C@@H]32)C1 (stereo partly shown) [Compound I-42, ALL-ASI-C8bMe-2-TG-oleate] | 334 | 0.47 | 1.5 |  |
| CCCC(=O)OCC(COC(=O)CCC)OC(=O)CC(C)CC(=O)OC(C)OC(=O)O[C@@H]1CC[C@@]2(C)[C@@H](CC[C@@H]3[C@@H]2CC[C@]2(C)[C@@H](C(C)=O)CC[C@@H]32)C1 (stereo partly shown) [Compound I-37, ALL-CMSI-C5bMe-2-TG-butyrate] |  |  |  | Cmax ([1]; po): 138 nM; Mean Plasma AUC, 0-24 h ([1]; po): 0.191 µM·h; Tmax ([1]; po): 0.8 h |
| CC(=O)OCC(COC(C)=O)OC(=O)CC(C)CC(=O)OC(C)OC(=O)O[C@@H]1CC[C@@]2(C)[C@@H](CC[C@@H]3[C@@H]2CC[C@]2(C)[C@@H](C(C)=O)CC[C@@H]32)C1 (stereo partly shown) [Compound I-38, ALL-CMSI-C5bMe-2-TG-acetate] |  |  |  | Cmax ([1]; po): 335 nM; Mean Plasma AUC, 0-24 h ([1]; po): 0.45 µM·h; Tmax ([1]; po): 1 h |
| CCC(=O)OCC(COC(=O)CC)OC(=O)C(C)CCCCCCCCC(C)C(=O)OCCCCC(=O)O[C@@H]1CC[C@@]2(C)[C@@H](CC[C@@H]3[C@@H]2CC[C@]2(C)[C@@H](C(C)=O)CC[C@@H]32)C1 (stereo partly shown) [Compound I-5, ALL-FSI5-C12a′aMe-2-TG] | 62.8 | 0.0839 | 1.8 |  |

From US20210268115A1 (priority 2020, published 2021)
